By Kd is commonly meant the concentration at which binding is half-saturated. As usually defined, the Ki is the equilibrium dissociation constant of an inhibitor or competing ligand from its target.

Consider 7 compounds from publication PMC4512758 (Analytical biochemistry, 2015).

Test [1] concerns the target SUR. Particulars: read-out: Reported Kd; SUR ligand; cited from earlier work.
Test [2] deals with SUR. The experiment in a line: Frontal affinity chromatography on MMAC-OT. It counts as binding, human. Particulars: read-out: Kd on MMAC-OT (HEK-293); SUR ligand; open tubular column.
The target in test [3] is sulfonylurea receptor (SUR). The experiment in a line: Frontal affinity chromatography on MMAC-. Type of test: binding, human. The settings on record: read-out: Kd on MMAC-(U87MG); SUR ligand; ammonium acetate [10 mM, pH 7.4].
Test [4] concerns the target TSPO. The settings on record: read-out: Reported Ki using marker ligand PK; cited from earlier work.
The target in test [5] is DIPY binding site of TSPO (Homo sapiens, UniProt P30536). Put plainly: Frontal displacement on MMAC-.
DIPY binding site of TSPO, sequence (P30536 whole entry): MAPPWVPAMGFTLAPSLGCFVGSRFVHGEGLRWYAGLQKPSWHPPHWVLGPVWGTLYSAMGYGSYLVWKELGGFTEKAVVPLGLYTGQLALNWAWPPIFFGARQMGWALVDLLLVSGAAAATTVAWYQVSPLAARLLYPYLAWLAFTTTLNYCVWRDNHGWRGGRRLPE
For test [6], the target named is T1, TSPO (Homo sapiens, UniProt P30536). The experiment in a line: Single displacement study for ranking TSPO ligands on MMAC-. It counts as binding. Particulars: MMAC-(U87MG).
T1 sequence (P30536 whole entry): as above
The target in test [7] is Translocator protein (TSPO) (Homo sapiens, UniProt P30536). The experiment in a line: Frontal affinity chromatography. Type of test: binding. The settings on record: for Breakthrough time: MMAC (U87MG), ammonium acetate [10 mM.
Translocator protein (TSPO), sequence (P30536 whole entry): as above
For test [8], the target named is mitochondrial permeability transition pore (mPTP). The experiment in a line: Frontal affinity chromatography on MMAC-. It counts as binding, human. Particulars: read-out: Kd on MMAC-(U87MG); mPTP ligand; ammonium acetate [10 mM, pH 7.4].
The target in test [9] is mPTP. The settings on record: cited from earlier work.
In test [10] the target is T1, TSPO. The experiment in a line: Frontal affinity chromatography on MMAC-OT. Type of test: binding.

Each structure is given as a SMILES string. Where “and” joins values, the source holds several entries; their conditions need not be identical. Equal entries are not always repeated. Where two headings read alike, the source gives them in different places.

For `COc1ccc(Cl)cc1C(=O)NCCc1ccc(S(=O)(=O)NC(=O)NC2CCCCC2)cc1` [Glibenclamide, glibenclamide], the Kd was 360 ± 50 nM in test [1], 990 ± 520 nM in test [2] and 790 ± 390 nM in test [3].
As for `C=CC1=C(C)c2cc3[nH]c(cc4nc(cc5[nH]c(cc1n2)c(C)c5CCC(=O)O)C(CCC(=O)O)=C4C)c(C)c3C=C` [PIX, protoporphyrin IX], the Ki in test [4] is 2920 nM; in test [5], 3330 ± 1350 nM.
As for `CN1C(=O)CN=C(c2ccccc2F)c2cc([N+](=O)[O-])ccc21` [Flu, flunitrazepam], the Ki in test [4] is 211 nM. Moreover, in test [6] (2.875 μM compound with 0.125 μM DIPY), the “Effect on retention of DIPY in single displacement study” value is on record as “increased the retention of DIPY”. In addition, in [6] (2.875 μM compound, pH 5.9), the “Increase of retention of 0.125 μM DIPY” value is on record as ~ 15%. Also, the “Increase of breakthrough time of DIPY” value in [5] (MMAC-(U87MG), concentrations greater than 0.5 μM) is on record as 10-15%. In addition, the “Displacement of DIPY” value in [5] (MMAC-(U87MG), concentrations lower than 0.5 μM) is reported as “did not significantly displace DIPY”. This compound returned a Kd in [7] of 290 ± 60 nM.
Turning to `O=C(O)Cc1ccccc1Nc1c(Cl)cccc1Cl` [Diclofenac, diclofenac], in test [8], the Kd turned out to be 1200 ± 190 nM. Also, in [9], the “Reported Kd (mPTP induction)” value was “induces mPTP at low micromolar range [1, 37]”.
On to `C=C(C)[C@H]1Cc2c(ccc3c2O[C@@H]2COc4cc(OC)c(OC)cc4[C@@H]2C3=O)O1` [Rot, rotenone], for which the Ki in [4] is 20900 nM; in test [5], 3400 ± 1270 nM.
`OCCN(CCO)c1nc(N2CCCCC2)c2nc(N(CCO)CCO)nc(N3CCCCC3)c2n1` [DIPY, dipyridamole]: in [4], the Ki is 680 nM and 679 nM. The compound further showed a Kd in [10] of 760 ± 250 nM. Also, the Breakthrough time in [7] (pH 5.9]) was 100 min; in test [7] (pH 5.9] with 10% methanol) it was 50 min; in [7] (pH 7.4]) it was 200 min.
On to `CCC1=C(C)c2cc3[nH]c(cc4[nH]c(cc5nc(cc1n2)C(C)=C5CC)c(C)c4CCC(=O)O)c(CCC(=O)O)c3C` [MIX, mesoporphyrin IX], for which the Ki was 650 nM in [4] and 1470 ± 120 nM in [5] (read-out: Ki for DIPY binding site on MMAC(U87MG), 0.5 μM DIPY as marker, ammonium acetate [10 mM, pH 5.9]).
